Laboratory results reported in patent publication US11033556B2, “Bicyclic sulfonamides” (priority 2019, dated 2021).
Where two headings read alike, the source gives them in different places.

What was measured:
HBV = test: HBV-DNA Antiviral Assay Using HepG2.2.15 Cells; assay type: cell-based; details: Hepatitis B virus
Procedure: The following assay procedure describes the HBV antiviral assay. This assay uses HepG2.2.15 cells, which have been transfected with HBV genome, and extracellular HBV DNA quantification as endpoint. Cell viability is assessed in parallel by measuring the intracellular ATP content using the CellTiter-Glo® reagent from Promega.
On day 0, HepG2.2.15 cells were seeded in 96-well plates at a density of 6.0×10^4 cells/well(0.1 ml/well). The cells were incubated at 37° C. and 5% CO2.
On day 1, the test articles were diluted and added to cell culture wells (8 concentrations, 4-fold dilution, in duplicate). GLS4, Tenofovir and Sorafenib were used as reference compounds. 100 μl of culture medium containing the compounds was added to the plate, and the final total volume per well was 200 μl. The final concentration of DMSO in the culture medium was 0.5%. The plate map of compound treatment is shown below. The cells were cultured at 37° C. and 5% CO2 for 3 days.
On day 4, the plates were refreshed with culture media with compounds.
On day 7, cell viability was assessed using the CellTiter-Glo®, and the cell culture supernatants were collected for determination of HBV DNA by qPCR.
Extracellular DNA was isolated with QIAamp 96 DNA Blood Kit per the manufacturer's manual. HBV DNA was then quantified by qPCR with HBV specific primers and probes as specified in Table 2 using the FastStart Universal MasterMix from Roche on an ABI-7900HT. The PCR cycle program consisted of 95° C. for 10 min, followed by 40 cycles at 95° C. for 15 sec and 60° C. for 1 min.
A DNA standard was prepared by dilution of the pAAV2 HBV1.3 plasmid with concentrations ranging from 10 to 1×10^7 […] and used to generate a standard curve by plotting Ct value vs. the concentration of the HBV plasmid DNA standard. The quantity of HBV DNA in each sample was determined by interpolating from the standard curve.
Cell viability was calculated as follows: % Cell viability=(luminescence value of test sample−average luminescence value of blank)/(average luminescence value of 0.5% DMSO control−average luminescence of blank)×100%. HBV DNA inhibition was calculated as follows: 100−(HBV DNA copy number of test sample−HBV DNA copy number of ETV)/HBV DNA copy number of 0.5% DMSO control−HBV DNA copy number of ETV)×100%. The CC50, EC50 and EC90 values were determined by dose-response curves fitted by GraphPad Prism using “log (agonist) vs. response—Variable slope”.

genotype D HBV = test: HBV-DNA Antiviral Assay Using HepG2.117 Cells; assay type: cell-based; details: Hepatitis B virus, HepG2.117, 96 h, intracellular HBV DNA by qPCR, day 4
Procedure: The following assay procedure describes the HBV antiviral assay, using HepG2.117 cells, which carry a stably integrated genotype D HBV genome under the control of a Tet-off promoter, and intracellular HBV DNA quantification as endpoint. Cell viability is assessed in parallel by measuring the intracellular ATP content using ATPlite (Perkin Elmer).
On day 0, HepG2.117 cells (which are maintained in routine cell culture with doxycycline present in the medium at a final concentration of 1 μg/mL) were seeded in 96-well plates (white with clear bottom) at a density of 2.0×10^4 cells/well (0.1 mL/well) in medium without doxycycline to induce pgRNA transcription and subsequent formation of HBV particles. The cells were incubated at 37° C. and 5% CO2.
On day 1, medium was removed from each well, the test articles were diluted in culture medium without doxcycyline and 100 μL was added to cell culture wells (9 concentrations, 4-fold dilution). For each plate, 6 untreated (merely DMSO) wells were included. The final concentration of DMSO in the culture medium was 2%. Each plate was prepared in duplicate (one for HBV DNA extraction, one for ATPlite measurement). The cells were incubated at 37° C. and 5% CO2 for 3 days.
On day 4, cell viability was assessed using ATPlite and cell lysates were prepared for HBV DNA extraction and subsequent quantification by qPCR.
Medium was removed from each well and 100 μL of 0.33% NP-40 in H2O was added to each well. Plates were sealed, incubated at 4° C. for 5 mins, vortexed extensively and centrifuged briefly. Next, 35 μL of lysate was added to 65 μL QuickExtract DNA Extraction Solution (Epicentre) in a PCR plate for each well. PCR plate was incubated at 65° C. for 6 mins, 98° C. for 2 mins and finally cooled to 4° C. HBV DNA was then quantified by qPCR with HBV-specific primers and probes as specified in Table 4 using the Bio-Rad SSOAdvanced Universal Probes Supermix on a CFX96 machine (Bio-Rad). The PCR cycle program consisted of 95° C. for 3 mins, followed by 40 cycles at 95° C. for 10 sec and 60° C. for 30 sec.
A DNA standard was prepared by dilution of an IDT gBlock corresponding to the amplicon with concentrations ranging from 10^2 to 10^8 copies/input (i.e. per 4 μL) and used to generate a standard curve by plotting Cq values vs. HBV DNA standard concentration. The quantity of HBV DNA in each sample was determined by interpolating from the standard curve.
Cell viability was calculated as follows: % Cell viability=(luminescence value of test sample)/(average luminescence value of 2% DMSO control)×100%. HBV DNA inhibition was calculated as follows: 100−(HBV DNA copy number of test sample)/(average HBV DNA copy number of 2% DMSO control)×100%. No normalization to entecavir was required due to the excellent dynamic window of this assay. The CC50, EC50 and EC90 values were determined by dose-response curves fitted by GraphPad Prism using “log (agonist) vs. response—Variable slope”.

[1] = HepG2.2.15 cells, extracellular HBV DNA by qPCR, one class for the group of four: *at least 2 of the diastereomers have the indicated activity, read-out: EC50

| Structure (SMILES) | EC50 (genotype D HBV) [µM] | further results |
| --- | --- | --- |
| C#C[C@@H](O)[C@H]1CCc2c(cn(C)c2C(=O)Nc2ccc(F)c(C#N)c2)S(=O)(=O)N1 [Compound 2A, (3R)—N-(3-cyano-4-fluorophenyl)-3-[(1R)-1-hydroxyprop-2-yn-1-yl]-7-methyl-1,1-dioxo-2H,3H,4H,5H-1λ6-pyrrolo[3,4-f][1,2]thiazepine-6-carboxamide] |  | EC50 (HBV; [1]): < 1 µM |
| C#C[C@H](O)[C@H]1CCc2c(cn(C)c2C(=O)Nc2ccc(F)c(C#N)c2)S(=O)(=O)N1 [Compound 2B, (3R)—N-(3-cyano-4-fluorophenyl)-3-[(1S)-1-hydroxyprop-2-yn-1-yl]-7-methyl-1,1-dioxo-2H,3H,4H,5H-1λ6-pyrrolo[3,4-f][1,2]thiazepine-6-carboxamide] |  | EC50 (HBV; [1]): < 1 µM |
| C#C[C@H](O)[C@@H]1CCc2c(cn(C)c2C(=O)Nc2ccc(F)c(C#N)c2)S(=O)(=O)N1 [Compound 2C, (3S)—N-(3-cyano-4-fluorophenyl)-3-[(1S)-1-hydroxyprop-2-yn-1-yl]-7-methyl-1,1-dioxo-2H,3H,4H,5H-1λ6-pyrrolo[3,4-f][1,2]thiazepine-6-carboxamide] |  | EC50 (HBV; [1]): < 1 µM |
| C#C[C@@H](O)[C@@H]1CCc2c(cn(C)c2C(=O)Nc2ccc(F)c(C#N)c2)S(=O)(=O)N1 [Compound 2D, (3S)—N-(3-cyano-4-fluorophenyl)-3-[(1R)-1-hydroxyprop-2-yn-1-yl]-7-methyl-1,1-dioxo-2H,3H,4H,5H-1λ6-pyrrolo[3,4-f][1,2]thiazepine-6-carboxamide] |  | EC50 (HBV; [1]): < 1 µM |
| CC#C[C@@H](O)[C@H]1CCc2c(cn(C)c2C(=O)Nc2ccc(F)c(C#N)c2)S(=O)(=O)N1 [Compound 3A, (3R)—N-(3-cyano-4-fluorophenyl)-3-[(1R)-1-hydroxybut-2-yn-1-yl]-7-methyl-1,1-dioxo-2H,3H,4H,5H-1λ6-pyrrolo[3,4-f][1,2]thiazepine-6-carboxamide] |  | EC50 (HBV; HepG2.2.15): < 1 µM |
| CC#C[C@H](O)[C@@H]1CCc2c(cn(C)c2C(=O)Nc2ccc(F)c(C#N)c2)S(=O)(=O)N1 [Compound 3C, (3S)—N-(3-cyano-4-fluorophenyl)-3-[(1S)-1-hydroxybut-2-yn-1-yl]-7-methyl-1,1-dioxo-2H,3H,4H,5H-1λ6-pyrrolo[3,4-f][1,2]thiazepine-6-carboxamide] |  | EC50 (HBV; HepG2.2.15): < 1 µM |
| CC#C[C@@H](O)[C@@H]1CCc2c(cn(C)c2C(=O)Nc2ccc(F)c(C#N)c2)S(=O)(=O)N1 [Compound 3D, (3S)—N-(3-cyano-4-fluorophenyl)-3-[(1R)-1-hydroxybut-2-yn-1-yl]-7-methyl-1,1-dioxo-2H,3H,4H,5H-1λ6-pyrrolo[3,4-f][1,2]thiazepine-6-carboxamide] |  | EC50 (HBV; HepG2.2.15): < 1 µM |
| C=C[C@@]1([C@H](C)O)COc2c(cn(C)c2C(=O)Nc2ccc(F)c(C#N)c2)S(=O)(=O)N1 [Compound 38A] | 0.01 to 0.1 |  |
| C=C[C@]1([C@@H](C)O)COc2c(cn(C)c2C(=O)Nc2ccc(F)c(C#N)c2)S(=O)(=O)N1 [Compound 38B] | 0.01 to 0.1 |  |
| C=C[C@]1([C@H](C)O)COc2c(cn(C)c2C(=O)Nc2ccc(F)c(C#N)c2)S(=O)(=O)N1 [Compound 38C] | 0.001 to 0.01 |  |
| C=C[C@@]1([C@@H](C)O)COc2c(cn(C)c2C(=O)Nc2ccc(F)c(C#N)c2)S(=O)(=O)N1 [Compound 38D] | 0.1 to 1 |  |
| C=CC1([C@H]2COc3c(cn(C)c3C(=O)Nc3ccc(F)c(C#N)c3)S(=O)(=O)N2)CCOCC1 [Compound 39A] | 0.01 to 0.1 |  |
| C=CC1([C@@H]2COc3c(cn(C)c3C(=O)Nc3ccc(F)c(C#N)c3)S(=O)(=O)N2)CCOCC1 [Compound 39B] | 0.01 to 0.1 |  |
| C=CC[C@](C)(O)[C@H]1COc2c(cn(C)c2C(=O)Nc2ccc(F)c(C#N)c2)S(=O)(=O)N1 [Compound 40A] | 0.001 to 0.01 |  |
| C=CC[C@@](C)(O)[C@H]1COc2c(cn(C)c2C(=O)Nc2ccc(F)c(C#N)c2)S(=O)(=O)N1 [Compound 40B] | 0.001 to 0.01 |  |
| C=C[C@H](O)[C@]1(C)COc2c(cn(C)c2C(=O)Nc2ccc(F)c(C#N)c2)S(=O)(=O)N1 [Compound 41A] | 0.001 to 0.01 |  |

| Structure (SMILES) | EC50 (genotype D HBV) [µM] | further results |
| --- | --- | --- |
| C=C[C@@H](O)[C@@]1(C)COc2c(cn(C)c2C(=O)Nc2ccc(F)c(C#N)c2)S(=O)(=O)N1 [Compound 41B] | 0.001 to 0.01 |  |
| C=C[C@H](O)[C@@]1(C)COc2c(cn(C)c2C(=O)Nc2ccc(F)c(C#N)c2)S(=O)(=O)N1 [Compound 41C] | 0.01 to 0.1 |  |
| C=C[C@@H](O)[C@]1(C)COc2c(cn(C)c2C(=O)Nc2ccc(F)c(C#N)c2)S(=O)(=O)N1 [Compound 41D] | 0.01 to 0.1 |  |
| C#C[C@H](O)[C@]1(C)COc2c(cn(C)c2C(=O)Nc2ccc(F)c(C#N)c2)S(=O)(=O)N1 [Compound 42A] | 0.001 to 0.01 |  |
| C#C[C@@H](O)[C@@]1(C)COc2c(cn(C)c2C(=O)Nc2ccc(F)c(C#N)c2)S(=O)(=O)N1 [Compound 42B] | 0.001 to 0.01 |  |
| C#C[C@H](O)[C@@]1(C)COc2c(cn(C)c2C(=O)Nc2ccc(F)c(C#N)c2)S(=O)(=O)N1 [Compound 42C] | 0.001 to 0.01 |  |
| C#C[C@@H](O)[C@]1(C)COc2c(cn(C)c2C(=O)Nc2ccc(F)c(C#N)c2)S(=O)(=O)N1 [Compound 42D] | 0.01 to 0.1 |  |
| C=CC1([C@H]2COc3c(cn(C)c3C(=O)Nc3ccc(F)c(C#N)c3)S(=O)(=O)N2)CCS(=O)(=O)CC1 [Compound 43A] | 0.01 to 0.1 |  |
| C=CC1([C@@H]2COc3c(cn(C)c3C(=O)Nc3ccc(F)c(C#N)c3)S(=O)(=O)N2)CCS(=O)(=O)CC1 [Compound 43B] | 0.01 to 0.1 |  |
| C=CC[C@H](O)[C@]1(C)COc2c(cn(C)c2C(=O)Nc2ccc(F)c(C#N)c2)S(=O)(=O)N1 [Compound 44A] | 0.01 to 0.1 |  |
| C=CC[C@@H](O)[C@@]1(C)COc2c(cn(C)c2C(=O)Nc2ccc(F)c(C#N)c2)S(=O)(=O)N1 [Compound 44B] | 0.001 to 0.01 |  |
| C=CC(C)(C)[C@H]1COc2c(cn(C)c2C(=O)Nc2ccc(F)c(C#N)c2)S(=O)(=O)N1 [Compound 45A] | 0.001 to 0.01 |  |
| C=CC(C)(C)[C@@H]1COc2c(cn(C)c2C(=O)Nc2ccc(F)c(C#N)c2)S(=O)(=O)N1 [Compound 45B] | 0.001 to 0.01 |  |
| CC#CC[C@H]1COc2c(cn(C)c2C(=O)Nc2ccc(F)c(C#N)c2)S(=O)(=O)N1 [Compound 46] | 0.001 to 0.01 |  |
| C=CC[C@H]1COc2c(cn(C)c2C(=O)Nc2ccc(F)c(C#N)c2)S(=O)(=O)N1 [Compound 47] | 0.001 to 0.01 |  |
